These results are taken from patent US20190216725A1, “DRUG DELIVERY SYSTEM FOR THE DELIVERY OF INTEGRASE INHIBITORS” (MERCK SHARP & DOHME CORP., priority 2016, published 2019).

A short description of the series: maximum solubility in PBS + solutol. The series is classed as physicochemical. Conditions: aqueous with cosolvent or surfactant or cyclodextrin.

Molecules are shown by their SMILES.

In the case of `C[C@]12CCCO[C@H]1Cn1cc(C(=O)NCc3ccc(F)cc3F)c(=O)c(O)c1C2=O` [active ingredient 1, (4aS,11aR)-N-(2,4-difluorobenzyl)-6-hydroxy-4a-methyl-5,7-dioxo-2,3,4,4a,5,7,11,11a-octahydropyrano[3,2-b]quinolizine-8-carboxamide], the solubility worked out at 150 µg/mL (in PBS+2 wt % solutol) and 260 µg/mL (in PBS+5 wt % solutol).
For the compound `CCN1C[C@@H]2C[C@@H](OC)c3c(C(=O)NCc4ccc(F)cc4F)c(=O)c(O)c(n32)C1=O` [active ingredient 2, (3aS,5R)-N-(2,4-difluorobenzyl)-2-ethyl-8-hydroxy-5-methoxy-1,7-dioxo-2,3,3a,4,5,7-hexahydro-1H-pyrazino[2,1,6-cd]indolizine-6-carboxamide], the solubility (in PBS+2 wt % solutol) came out at 310 µg/mL.
